One assay concerns the target Tdp1 (Homo sapiens, UniProt Q9NUW8). Kind of assay: Tdp1 inhibition gel-based assay. The following applies: IC50 Tdp1 (μM), Table 6; replicate values listed in one cell.
The target of another assay is T1, Top1 (Homo sapiens, UniProt P11387).
T1 sequence (P11387 1-765): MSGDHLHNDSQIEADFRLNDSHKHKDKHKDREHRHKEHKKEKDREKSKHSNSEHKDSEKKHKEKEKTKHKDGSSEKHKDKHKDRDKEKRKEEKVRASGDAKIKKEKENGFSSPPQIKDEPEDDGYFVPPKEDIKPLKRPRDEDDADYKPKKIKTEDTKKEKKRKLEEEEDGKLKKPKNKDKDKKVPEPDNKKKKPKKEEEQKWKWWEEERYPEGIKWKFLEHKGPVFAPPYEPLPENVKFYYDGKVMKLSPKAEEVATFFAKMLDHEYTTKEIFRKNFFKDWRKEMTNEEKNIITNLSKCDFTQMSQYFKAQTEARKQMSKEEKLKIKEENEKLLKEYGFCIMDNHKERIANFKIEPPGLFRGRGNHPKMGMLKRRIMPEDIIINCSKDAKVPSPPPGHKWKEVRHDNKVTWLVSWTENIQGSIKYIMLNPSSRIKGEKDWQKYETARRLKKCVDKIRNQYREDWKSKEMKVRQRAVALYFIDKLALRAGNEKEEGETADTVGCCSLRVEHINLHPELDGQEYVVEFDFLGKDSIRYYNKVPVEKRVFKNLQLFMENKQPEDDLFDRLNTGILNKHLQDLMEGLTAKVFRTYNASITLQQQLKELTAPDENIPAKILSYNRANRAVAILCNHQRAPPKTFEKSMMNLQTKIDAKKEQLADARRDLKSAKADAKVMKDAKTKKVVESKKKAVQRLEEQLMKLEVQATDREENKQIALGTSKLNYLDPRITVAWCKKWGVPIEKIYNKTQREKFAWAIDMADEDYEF
Kind of assay: Top1-mediated DNA cleavage assay. It is filed as biochemical. The following applies: for Top1 cleavage: inhibition relative to 1 μM CPT, Table 6.

Molecules are shown by their SMILES. “And” between values parts separate entries of the source, which are not always exact repeats. Equal values may be shown once.

Tdp1, sequence (Q9NUW8 whole entry): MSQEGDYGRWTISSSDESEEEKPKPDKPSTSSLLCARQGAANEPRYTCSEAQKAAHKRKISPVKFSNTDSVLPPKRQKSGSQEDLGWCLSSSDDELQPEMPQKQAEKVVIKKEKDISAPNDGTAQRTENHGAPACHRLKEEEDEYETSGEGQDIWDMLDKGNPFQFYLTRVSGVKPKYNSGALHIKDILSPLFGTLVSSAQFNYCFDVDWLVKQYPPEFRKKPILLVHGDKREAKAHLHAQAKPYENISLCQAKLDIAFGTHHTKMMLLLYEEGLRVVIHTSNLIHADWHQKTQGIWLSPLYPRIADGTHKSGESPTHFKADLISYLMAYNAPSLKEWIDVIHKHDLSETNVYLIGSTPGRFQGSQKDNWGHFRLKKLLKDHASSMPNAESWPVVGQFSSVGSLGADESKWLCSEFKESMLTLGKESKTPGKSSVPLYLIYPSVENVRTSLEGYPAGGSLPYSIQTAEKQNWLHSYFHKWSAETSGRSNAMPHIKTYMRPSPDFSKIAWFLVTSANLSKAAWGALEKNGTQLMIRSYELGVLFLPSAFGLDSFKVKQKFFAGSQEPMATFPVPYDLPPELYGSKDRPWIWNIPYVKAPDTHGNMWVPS
Method for Tdp1: The indenoisoquinoline 10 was used as the positive control.
Gel-based assay. […] Gels were dried and exposed to a PhosphorImager screen (GE Healthcare). Gel images were scanned using a Typhoon FLA 9500 scanner (GE Healthcare), and densitometry analyses were performed using the ImageQuant software (GE Healthcare).

`CN(C)CCn1c(=O)c2cc(O)c(O)cc2c2ccc3cc4c(cc3c21)OCO4` [TWL-170] yielded an IC50 on Tdp1 of over 111 µM. Further, the Top1 cleavage result at Top1 is recorded as “+ (+ is 20-50%)”.

On Tdp1, `COc1cc2c(OCCCN3CCN(C(C)=O)CC3)nc3c4cc5c(cc4ccc3c2cc1OC)OCO5` [NTD-205] had an IC50 of over 111 µM. In addition, the Top1 cleavage entry at Top1 is “++ (++ is 50-75%)”. Consider `CN(C)CCn1c(=O)c2ccccc2c2ccc3cc(Br)ccc3c21` [TWL-53], for which the IC50 against Tdp1 is over 111 µM. In turn, `CCN1CCN(CCCOc2nc3c4cc5c(cc4ccc3c3cc(OC)c(OC)cc23)OCO5)CC1` [NTD-207] gave an IC50 on Tdp1 of over 111 µM. Further, on Top1, the Top1 cleavage result is given as “+ (+ is 20-50%)”.

For the compound `COc1cc2c(=O)n(CCN(C)C)c3c4cc5c(cc4ccc3c2cc1O)OCO5` [TWL-119], the IC50 at Tdp1 is over 111 µM. In addition, the Top1 cleavage result at Top1 is listed as “+ (+ is 20-50%)”. On Tdp1, `COc1cc2c[n+](CCN(C)C)c3c4cc5c(cc4ccc3c2cc1OC)OCO5` [NTD-191] yielded an IC50 of 64.2 ± 23.9 µM. With `COc1cc2c(ccc3c4cc(OC)c(OC)cc4c(=O)n(CCN(C)C)c23)cc1O` [TWL-125], on Tdp1, the IC50 is 65 µM and 50 µM. The Top1 cleavage entry on Top1 is listed as “+ (+ is 20-50%)”. In turn, `CCN(CC)CCNc1nc2c3cc4c(cc3ccc2c2cc(OC)c(OC)cc12)OCO4` [NTD-305] came in with an IC50 on Tdp1 of over 111 µM. Further, the Top1 cleavage result on Top1 was “+ (+ is 20-50%)”. At Tdp1, `COc1cc2c(NCCN3CCOCC3)nc3c4cc5c(cc4ccc3c2cc1OC)OCO5` [NTD-309] registered an IC50 of over 111 µM. For the same compound, on Top1, the Top1 cleavage result is listed as “+ (n = 2) (+ is 20-50%)”. On Tdp1, `CN(C)CCn1c(=O)c2cc3c(cc2c2ccc4ccccc4c21)OCO3` [TWL-40] showed a 50% inhibitory concentration (IC50) of 18.2 ± 1.15 µM. Besides, on Top1, the Top1 cleavage entry is recorded as “+ (+ is 20-50%)”. On to `CCC(CO)Nc1nc2c3cc4c(cc3ccc2c2cc(OC)c(OC)cc12)OCO4` (stereo not shown) [NTD-363], for which the Top1 cleavage entry at Top1 is “+ (+ is 20-50%)”.

Consider `COc1cc2c(OCCCN3CCC3)nc3c4cc5c(cc4ccc3c2cc1OC)OCO5` [NTD-225], for which the concentration for half-maximal inhibition (IC50) against Tdp1 was found to be 20.6 ± 4.46 µM. For the same compound, the Top1 cleavage at Top1 was 0 (0 is inactive). Taken in the same sequence, the figures for `CN(C)CCn1c(=O)c2c3c(ccc2c2ccc4ccccc4c21)OCO3` [TWL-185] were over 111 µM and “+ (+ is 20-50%)”. On Tdp1, `COc1cc2ccc3c4cc(OC)c(OC)cc4c(=O)n(CCN(C)C)c3c2cc1O` [TWL-131] came in with an IC50 of over 111 µM. On Tdp1, `COc1cccc2c1ccc1c3ccccc3c(=O)n(CCN(C)C)c21` [TWL-26] registered an IC50 of over 111 µM. The Top1 cleavage result at Top1 is listed as “+ (+ is 20-50%)”.

For `COc1cc2c(OCCCOC(=O)c3ccc(Cl)cc3)nc3c4cc5c(cc4ccc3c2cc1OC)OCO5` [NTD-210], the IC50 on Tdp1 was over 111 µM. The Top1 cleavage entry on Top1 is on record as “+ (+ is 20-50%)”. `COc1ccc2c(ccc3c4ccccc4c(=O)n(CCN(C)C)c23)c1` [TWL-9] came in with an IC50 against Tdp1 of over 111 µM. The Top1 cleavage entry on Top1 is recorded as “+ (+ is 20-50%)”. `CCN(CC)CCSc1nc2c3cc4c(cc3ccc2c2cc(OC)c(OC)cc12)OCO4` [NTD-404] registered an IC50 at Tdp1 of over 111 µM. The Top1 cleavage result at Top1 was “++ (++ is 50-75%)”. Regarding `COc1cc2c(=O)n(CCN(C)C)c3c4cc5c(cc4c(OC)cc3c2cc1OC)OCO5` [TWL-246], on Top1, the Top1 cleavage entry is listed as “++ (++ is 50-75%)”.

Turning to `CN(C)CCn1c(=O)c2cc3c(cc2c2ccc4cc5c(cc4c21)OCO5)OCO3` [TWL-37], the IC50 against Tdp1 worked out at 27.6 ± 19 µM. In addition, the Top1 cleavage result at Top1 was “+ (+ is 20-50%)”. `COc1cc2c[n+](CCCn3ccnc3)c3c4cc5c(cc4ccc3c2cc1OC)OCO5` [NTD-192] showed an IC50 against Tdp1 of 81.3 ± 14.5 µM.

For `CN(C)CCn1c(=O)c2ccccc2c2ccc3ccccc3c21` [TWL-5], the IC50 against Tdp1 was 75.9 µM and > 111 µM (2×) and 64.6 µM. In addition, on Top1, the Top1 cleavage result is on record as “+ (+ is 20-50%)”. Take `COc1cc2c(N(C)C)nc3c4cc5c(cc4ccc3c2cc1OC)OCO5` [NTD-329]: the IC50 at Tdp1 is over 111 µM.

Compound `CCOC(=O)COc1nc2c3cc4c(cc3ccc2c2cc(OC)c(OC)cc12)OCO4` [NTD-334] displayed an IC50 against Tdp1 of over 111 µM.

For `COc1cc2c(OCCCOC(=O)c3ccc(Br)cc3)nc3c4cc5c(cc4ccc3c2cc1OC)OCO5` [NTD-209], the concentration for half-maximal inhibition (IC50) on Tdp1 is over 111 µM. The Top1 cleavage result at Top1 is given as “+ (+ is 20-50%)”. For the compound `COc1cc2ccc3c4cc(OC)c(OC)cc4c(=O)n(CCN(C)C)c3c2cc1OC` [TWL-48], at Tdp1, the IC50 is over 111 µM. In turn, `COc1ccc2ccc3c4ccccc4c(=O)n(CCN(C)C)c3c2c1` [TWL-33] displayed an IC50 on Tdp1 of over 111 µM. Moreover, the Top1 cleavage entry at Top1 is on record as “+ (+ is 20-50%)”. With `COc1cc2ccc3c4ccccc4c(=O)n(CCN(C)C)c3c2cc1OC` [TWL-76H], the IC50 on Tdp1 was over 111 µM. As to `COc1cc2c(=O)n(CCN(C)P3(=O)OCCO3)c3c4cc5c(cc4ccc3c2cc1OC)OCO5` [Compound 57, 2,3-dimethoxy-12-(2-(methyl(2-oxido-1,3,2-dioxaphospholan-2-yl)amino)ethyl)-[1,3]dioxolo[4′,5′:4,5]benzo[1,2-c]phenanthridin-13(12H)-one], at Top1 (graded relative to CPT at 1 μM, Table 7), the TOP1 inhibition entry was “++ (++, between 50% and 75% activity)”. Regarding `COc1ccc2c(c1O)c(=O)n(CCN(C)C)c1c3cc4c(cc3ccc21)OCO4` [TWL-211], the IC50 against Tdp1 is 11 µM and 30 µM and 72 µM. Besides, on Top1, the Top1 cleavage result is listed as “+ (+ is 20-50%)”.

With `COc1ccc2c(c1)c(=O)n(CCN(C)C)c1c3ccccc3ccc21` [TWL-25], the IC50 at Tdp1 amounted to 49.4 ± 1.4 µM. In addition, at Top1, the Top1 cleavage entry is recorded as “+ (+ is 20-50%)”. Taken in the same sequence, the figures for `COc1cc2c(=O)n(CCN(C)C)c3c4ccccc4ccc3c2cc1OC` [TWL-44] were over 111 µM and “+ (+ is 20-50%)”. For `COc1cc2c(NCCCN3CCN(C)CC3)nc3c4cc5c(cc4ccc3c2cc1OC)OCO5` [NTD-312], the IC50 on Tdp1 is over 111 µM. The Top1 cleavage result on Top1 is on record as “+ (+ is 20-50%)”.

On to `CCN(CC)CC[n+]1cc2cc(OC)c(OC)cc2c2ccc3cc4c(cc3c21)OCO4` [NTD-195], for which, on Tdp1, the IC50 was over 111 µM. Consider `CN(C)CCn1c(=O)c2ccccc2c2ccc3cc4c(cc3c21)OCO4` [TWL-67], for which the IC50 against Tdp1 was over 111 µM. Further, on Top1, the Top1 cleavage entry was “+ (+ is 20-50%)”. The compound `COc1cc2c(NCCN3CCCCC3)nc3c4cc5c(cc4ccc3c2cc1OC)OCO5` [NTD-313] showed a half-maximal inhibitory concentration (IC50) against Tdp1 of over 111 µM. Besides, the Top1 cleavage result on Top1 is given as “+ (n = 2) (+ is 20-50%)”. On Tdp1, `COc1cc2c(NCCCn3ccnc3)nc3c4cc5c(cc4ccc3c2cc1OC)OCO5` [NTD-314] displayed an IC50 of over 111 µM. The Top1 cleavage result on Top1 was “+ (+ is 20-50%)”. For `COc1cc2c(NCCN3CCCC3)nc3c4cc5c(cc4ccc3c2cc1OC)OCO5` [NTD-307], half-maximal inhibition against Tdp1 (IC50) was put at 56.2 µM.

`COc1ccc2c(=O)n(CCN(C)C)c3c4ccccc4ccc3c2c1` [TWL-17] yielded an IC50 against Tdp1 of over 111 µM. The Top1 cleavage entry on Top1 is reported as “+ (+ is 20-50%)”. Consider `CN(C)CCn1c(=O)c2c(O)c(O)ccc2c2ccc3cc4c(cc3c21)OCO4` [TWL-218A], for which, on Top1, the Top1 cleavage entry was “+++ (+++ is 75-95%)”. On to `COc1cc2c(NCCN3CCNCC3)nc3c4cc5c(cc4ccc3c2cc1OC)OCO5` [NTD-311], for which, on Tdp1, the IC50 was over 111 µM. With `C=CCOc1nc2c3cc4c(cc3ccc2c2cc(OC)c(OC)cc12)OCO4` [NTD-332], the IC50 at Tdp1 is over 111 µM. On the same count and under the same terms, with `CN(C)CCn1c(=O)c2c3c(ccc2c2ccc4cc5c(cc4c21)OCO5)OCO3` [TWL-191] the figure was over 111 µM; with `COc1cc2ccc3c4cc5c(cc4c(=O)n(CCN(C)C)c3c2cc1OC)OCO5` [TWL-107], 67.6 µM.
